Data on 42 compounds can be found in PubChem BioAssay AID1648 (Sanford-Burnham Center for Chemical Genomics, 2009).

Structures are written as SMILES. Active and inactive are the calls of the source. The rule behind the calls is not given here.

The target of this assay is Serine/threonine-protein kinase mTOR (Homo sapiens) (UniProt P42345). In words: binders of mTOR FRB domain, biophysical, NMR (AID 1648). Conditions: NMR binding to FRB domain, chemical shift.
Chain of Serine/threonine-protein kinase mTOR (Homo sapiens) (P42345 2015-2114): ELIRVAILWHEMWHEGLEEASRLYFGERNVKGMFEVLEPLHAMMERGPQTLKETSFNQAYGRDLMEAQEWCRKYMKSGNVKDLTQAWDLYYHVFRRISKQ
Turning to `CC1CCN(C(=S)c2ccccc2O)CC1`, the Kd was > 4 mM (inactive).
`O=C(CSc1ncn[nH]1)c1ccc2c(c1)OCCO2`: the Kd is > 4 mM (inactive).
With `CNC(=O)Nc1cccc(C(F)(F)F)c1`, the Kd was > 4 mM (inactive).
In the case of `O=C(Nc1ccon1)c1cccc(Cl)c1`, the Kd is > 4 mM (inactive).
As for `Nc1cc(C(=O)N2CCCC2)cc(C(=O)N2CCCC2)c1`, the Kd was > 4 mM (inactive).
For the compound `O=C1CSC(=O)N1CN1CCOCC1`, the Kd was > 4 mM (inactive).
As for `Cc1ccccc1NC(=O)CC1SC(N)=NC1=O` (configuration not stated), the Kd is > 4 mM (inactive).
Turning to `Cc1cc(C(=O)Nc2ccon2)cs1`, the Kd was > 4 mM (inactive).
For the compound `O=C(Cc1c(F)cccc1Cl)Nc1cccnc1`, the Kd was > 4 mM (inactive).
As to `O=C1Nc2ccccc2C12OCCO2`, the Kd was > 4 mM (inactive).
As to `C[C@@H]1O[C@@H](O[C@H]2CC[C@]3(C=O)C4CC[C@]5(C)[C@@H](C6=CC(=O)OC6)CC[C@]5(O)C4CC[C@]3(O)C2)[C@H](O)[C@H](O)[C@H]1O` (some centres not stated), the Kd is > 4 mM (inactive).
As to `CC(C)c1ccc2c(c1O)CC[C@H]1C3=C(CC[C@]21C)C(=O)OC3`, the Kd is > 4 mM (inactive).
For the compound `Cc1nnc2sc(-c3ccco3)nn12`, the Kd was > 4 mM (inactive).
Consider `COCc1cc(C)nc2sc(C(=O)OC)c(N)c12`, for which the Kd is > 4 mM (inactive).
With `C/C=C/C(=O)Nc1ccc(NC(C)=O)cc1` the figure was > 4 mM (inactive).
With `CC(=O)Nc1cccs1` the figure was > 4 mM (inactive).
Consider `Cc1cc(O)c2c(c1)C(=O)c1cccc(O)c1C2=O`, for which the Kd is > 4 mM (inactive).
`CSc1nn(-c2ccccc2)c(N)c1C#N`: the Kd was > 4 mM (inactive).
As for `O=C(O)C1CCCCN1Cc1ccccc1` (configuration not stated), the Kd is > 4 mM (inactive).
Consider `O=C(CCc1ccc(O)cc1)c1c(O)cc(O)cc1O`, for which the Kd is > 4 mM (inactive).
Regarding `Cc1nc(-c2ccc(C(=O)N3CCOCC3)cc2)cs1`, the Kd was > 4 mM (inactive).
Regarding `O=C(O)CC1C(=O)NCCN1Cc1cccs1` (configuration not stated), the Kd was > 4 mM (inactive).
With `C=CC(=O)N1CC2CC(C1)c1cccc(=O)n1C2` (configuration not stated) the figure was > 4 mM (inactive); with `CSc1ccc(/C=c2\sc3ncnn3c2=O)cc1`, > 4 mM (inactive).
On to `Nc1ccnc(C(=O)O)c1`, for which the Kd is > 4 mM (inactive).
Consider `Nc1ccc2c(c1)CCCC2=O`, for which the Kd was > 4 mM (inactive).
Turning to `O=C(O)c1ncoc1-c1ccccc1`, the Kd was > 4 mM (inactive).
`CC1O[C@@H](Oc2c(-c3ccc(O)c(O)c3)oc3cc(O)cc(O)c3c2=O)[C@H](O)[C@H](O)[C@H]1O` (some centres not stated): the Kd is > 4 mM (inactive).
As for `Cc1nnc(SCc2ccccc2)[nH]c1=O`, the Kd was > 4 mM (inactive).
For the compound `Cc1nnc(NCc2cccnc2)[nH]c1=O`, the Kd is > 4 mM (inactive).
With `Cc1ccc(C(=O)N2CCOCC2)cc1Cl`, the Kd is > 4 mM (inactive).
`COC(=O)[C@H]1[C@H]2C[C@H]3c4[nH]c5ccccc5c4CCN3C[C@H]2CC[C@@H]1O`: the Kd is > 4 mM (inactive).
Under `Cc1nnc(-n2cnc3ccccc32)c2ccccc12` stands > 4 mM (inactive); under `c1coc(CNc2nc(-c3ccncc3)cs2)c1`, > 4 mM (inactive).
Under `CCc1noc(C)c1C(=O)N1CCOCC1` stands > 4 mM (inactive).
For the compound `CC1CCN(C(=O)c2ccc(NS(C)(=O)=O)cc2)CC1`, the Kd is > 4 mM (inactive).
With `Nc1nc(N)nc(N2C(=O)c3ccccc3C2=O)n1` the figure was > 4 mM (inactive); with `O=C(Nc1nncs1)c1c(F)c(F)c(F)c(F)c1F`, > 4 mM (inactive).
Under `Nc1csc(C(=O)O)c1` stands > 4 mM (inactive).
With `CNC(=O)c1ccccc1N` the figure was > 4 mM (inactive); with `COC(=O)c1cccs1`, > 4 mM (inactive); with `Cc1nc(-c2ccc(C(=O)O)s2)cs1`, > 4 mM (inactive).

By Kd is commonly meant the constant that tells how readily two partners part at equilibrium.
